From patent publication US12016943B2, “Antiperspirant or deodorant composition” (Firmenich SA, priority 2016, dated 2024)

Columns and labels:
Format in all cases: physicochemical
[1] = Assessment of coloration of deodorant or antiperspirant formulations containing perfuming ingredients with or without Haloscent D; design: key: CO: color; COYE: yelow color; VSCOYE: very slight yellow color; SCOYE: slight yellow color; VCOYE: very yellow color; NC: no color; DECO: decoloration; CL: cloud; VCL: very cloud; WH: white; VCOBR: very brown color; COPI: ping color; conditions: perfuming ingredient 0.5 wt %, after 15 days
Experimental: (§1) Preparation of an Antiperspirant Spray Formulation: Using a high speed stirrer, Silica (Table 1) and Quaternium-18-Hectorite (Table 1) were added to the Isopropyl miristate (Table 1) and Cyclomethicone mixture (Table 1). Once completely swollen, Aluminium Chlorohydrate (Table 1) was added portion wise under stirring until the mixture was homogeneous and without lumps. The aerosol cans were filled with 25% Suspension of the suspension and 75% of Propane/Butane (2.5 bar).
(§2) Preparation of Deodorant Spray Formulation: All the ingredients according to the sequence of the Table 2 were mixed and dissolved. Then the aerosol cans were filled, crimp and add the propellant (Aerosol filling: 40% active solution 60% Propane/Butane 2.5 bar).
(§3) Part A was prepared by sprinkling little by little the Hydroxyethylcellulose (Table 3) in the water (Table 3) whilst rapidly stirring with the turbine. Stirring was continued until the Hydroxyethylcellulose had entirely swollen and giving a limpid gel. Then, Part B (Table 3) was poured little by little in Part A whilst continuing stirring until the whole was homogeneous. Part C was added (Table 3).
(§4) Preparation of a Deodorant Stick Formulation: All the components of Part A were weighted (Table 4) and heated up to 70-75° C. Ceteareth-25 (Table 4) was added once the other Part A ingredients were mixed and heated. Once the Ceteareth-25 was dissolved, the Stearic Acid was added. Part B was prepared by dissolving the Triclosan (Table 4) in 1,2 Propylene Glycol (Table 4). Water which has evaporated was added. Slowly under mixing, Part B was poured into part A. To stock, a plastic bag into the bucket was put in to be sealed after cooling. Moulds was filled at about 70° C.
(§5) Preparation of an Antiperspirant Stick Formulation: All the components of Part A were weighted (Table 5), heated up to 70-75° C. and mixed well. Ingredient of Part B was dispersed in Part A. The mixture was mixed and putted into a tick at 65° C.
(§6) Assessment of Coloration in the Perfuming Ingredients: To set of deodorant or antiperspirant formulations of point a) to e) has been prepared. A perfuming ingredient (0.5 wt %—Table 6, 7 and 8) was added to the first set a and a perfuming ingredient (0.5 wt %—Table 6, 7 and 8) and Haloscent® D (0.5 wt %) were added to the second set. All these formulations were placed at 3° C. and 45° C. for several weeks. All formulations were evaluated in comparison with unperfumed deodorant or antiperspirant formulation. The coloration of each formulation was assessed by a minimum of 2 panelists.

[2] = as above; design: key: CO: color; COYE: yellow color; SCOYE: slight yellow color; VCOYE: very yellow color; NC: no color; DECO: discoloration; CL: cloud; VCL: very cloud; WH: white; VCOBR: very brown color; COPI: ping color; conditions: perfuming ingredient 0.5 wt %, after 15 days; for Coloration of deodorant spray: DEO SPRAY + Haloscent D 0.5 wt %
Experimental: as §1, §2, §3, §4, §5, §6

[3] = as above; design: key to Coloration of antiperspirant stick: CO: color; COYE: yelow color; VSCOYE: very slight yellow color; SCOYE: slight yellow color; VCOYE: very yellow color; NC: no color; DECO: decoloration; CL: cloud; VCL: very cloud; WH: white; VCOBR: very brown color; COPI: ping color; conditions: perfuming ingredient 0.5 wt %; for Coloration of antiperspirant stick: after 7 days
Experimental: as §1, §2, §3, §4, §5, §6

[4] = DEO ROLL-ON + Haloscent D 0.5 wt %, 3° C.
[5] = DEO STICK + Haloscent D 0.5 wt %, 3° C.
[6] = DEO STICK + Haloscent D 0.5 wt %, 45° C.
[7] = DEO ROLL-ON + Haloscent D 0.5 wt %, 45° C.
[8] = DEO SPRAY + Haloscent D 0.5 wt %, 3° C.
[9] = DEO SPRAY + Haloscent D 0.5 wt %, 45° C.
[10] = AP SPRAY + Haloscent D 0.5 wt %, 3° C.
[11] = AP SPRAY + Haloscent D 0.5 wt %, 45° C.
[12] = AP Stick + Haloscent D 0.5 wt %, 3° C.
[13] = AP Stick + Haloscent D 0.5 wt %, 45° C.

Compound	Coloration of deodorant roll-on [1, 4]	Coloration of deodorant roll-on ([1]; DEO ROLL-ON, 3° C.)	Coloration of deodorant roll-on ([1]; DEO ROLL-ON, 45° C.)	Coloration of deodorant stick [1, 5]	Coloration of deodorant stick [1, 6]	Coloration of deodorant stick ([1]; DEO STICK, 3° C.)	Coloration of deodorant stick ([1]; DEO STICK, 45° C.)	Coloration of deodorant roll-on [2, 7]	Coloration of antiperspirant spray ([1]; AP SPRAY, 3° C.)	Coloration of antiperspirant spray ([1]; AP SPRAY, 45° C.)	Coloration of deodorant spray [1, 8]	Coloration of deodorant spray [1, 9]	Coloration of deodorant spray ([1]; DEO SPRAY, 3° C.)	Coloration of deodorant spray ([1]; DEO SPRAY, 45° C.)	Coloration of deodorant roll-on [1, 7]	Coloration of antiperspirant stick [3, 12]	Coloration of antiperspirant stick [3, 13]	Coloration of antiperspirant stick ([3]; AP Stick, 3° C.)	Coloration of antiperspirant stick ([3]; AP Stick, 45° C.)	further results
(+−)-(3E)-3-methyl-4-(2,6,6-trimethyl-2-cyclohexen-1-yl)-3-buten-2-one (A) + (+−)-(1E)-1-(2,6,6-trimethyl-2-cyclohexen-1-yl)-1-penten-3-one (B) [ISORALDEINE 70P]	WH	VCL	NC	NC	VCOYE	NC	VCOYE	COYE	–	–	–	–	–	–	–	–	–	–	–	–
(+−)-(4E)-3-METHYL-4-CYCLOPENTADECEN-1-ONE (A) + (+−)-(5E)-3-METHYL-5-CYCLOPENTADECEN-1-ONE (B) + (+−)-(5Z)-3-METHYL-5-CYCLOPENTADECEN-1-ONE (C) [MUSCENONE DELTA]	WH	VCL	SCOYE	NC	NC	NC	NC	COYE	NC	NC	NC	NC	NC	NC	–	–	–	–	–	Coloration of antiperspirant spray [2, 10]: COYE; Coloration of antiperspirant spray [2, 11]: COYE
1-(3,3-dimethyl-1-cyclohexen-1-yl)-4-penten-1-one (A) + 1-(5,5-dimethyl-1-cyclohexen-1-yl)-4-penten-1-one (B) [DYNASCONE]	WH	VCL	NC	SCOYE	VCOYE	NC	VCOYE	–	–	–	–	–	–	–	SCOYE	–	–	–	–	–
C=C(CC)CCCC(C)(C)O [2-METHYL-6-METHYLIDENEOCTAN-2-OL]	NC	NC	NC	SCOYE	NC	NC	NC	–	–	–	–	–	–	–	NC	–	–	–	–	–
CCCCCOC(=O)c1ccccc1O [AMYLE SALICYLATE, PENTYL 2-HYDROXYBENZOATE]	WH	VCL	NC	NC	NC	NC	NC	–	–	–	–	–	–	–	VCL	VSCOPI	VSCOPI	VSCOPI	NC	–
c1ccc2[nH]ccc2c1 [2,3-BENZOPYRROLE]	NC	NC	NC	NC	NC	NC	SCOYE	–	–	–	–	–	–	–	–	COPI	VSCOYE	DECO	VSCOYE	Coloration of deodorant roll-on ([3]; DEO ROLL-ON + Haloscent D 0.5 wt %, 45° C., after 15 days): VSCOYE
CC(C)c1ccc2c(c1)OCC(=O)CO2 [CALONE, 7-ISOPROPYL-2H,4H-1,5-BENZODIOXEPIN-3-ONE]	NC	NC	–	COPI	VCOBR	COPI	VCOBR	–	–	SCOYE	CO	CO	CO	CO	CO	–	–	–	–	Coloration of antiperspirant spray [2, 10]: COYE; Coloration of antiperspirant spray [2, 11]: COYE; Coloration of antiperspirant spray ([2]; AP SPRAY, 3° C.): COYE; Coloration of deodorant roll-on ([2]; DEO ROLL-ON, 45° C.): DECO
CCC(=O)OCC(=O)O[C@@H](C)[C@@H]1CCCC(C)(C)C1 [ROMANDOLIDE, 2-{(1S)-1-[(1R)-3,3-dimethylcyclohexyl]ethoxy}-2-oxoethyl propionate]	VCL	VCL	NC	NC	NC	NC	NC	COYE	–	–	–	–	–	–	–	–	–	–	–	–
CC(C)=CCCC(C)CCO (racemic) [(+−)-3,7-DIMETHYL-6-OCTEN-1-OL]	NC	NC	NC	SCOYE	NC	NC	NC	–	NC	NC	NC	NC	NC	NC	NC	VSCOYE	VSCOYE	DECO	DECO	Coloration of antiperspirant spray [1, 10]: SCOYE; Coloration of antiperspirant spray [1, 11]: SCOYE
O=C1CC/C=C\CCCCCCCCCC1 [EXALTENONE, (Z)-4-CYCLOPENTADECEN-1-ONE]	WH	VCL	VCL	NC	NC	NC	NC	–	NC	NC	–	–	NC	NC	CL	–	–	–	–	Coloration of antiperspirant spray [1, 10]: NC; Coloration of antiperspirant spray [1, 11]: NC; Coloration of deodorant spray ([2]; 3° C.): COYE; Coloration of deodorant spray ([2]; 45° C.): COYE
